The assay concerns the target ATP-dependent translocase ABCB1 (Homo sapiens) (UniProt P08183). Description: P-gp JC-1 efflux blockers potency – Jurkat-DNR cells, flow cytometry, follow-up, dose response (AID 489002). To be noted: for inhibition: at 50 µM (top of the series). A general note: A flow cytometer gives signals particle by particle.

The source made the active and inactive calls.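 The calls were made as follows: active = combined score above 52 from an acceptable curve fit, favoring EC50 below 10 µM and curve height over 20%; inactive = the rest.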

The term EC50 denotes the concentration that produces a half-maximal response.

Sequence of ATP-dependent translocase ABCB1 (Homo sapiens) (P08183 whole entry, looked up): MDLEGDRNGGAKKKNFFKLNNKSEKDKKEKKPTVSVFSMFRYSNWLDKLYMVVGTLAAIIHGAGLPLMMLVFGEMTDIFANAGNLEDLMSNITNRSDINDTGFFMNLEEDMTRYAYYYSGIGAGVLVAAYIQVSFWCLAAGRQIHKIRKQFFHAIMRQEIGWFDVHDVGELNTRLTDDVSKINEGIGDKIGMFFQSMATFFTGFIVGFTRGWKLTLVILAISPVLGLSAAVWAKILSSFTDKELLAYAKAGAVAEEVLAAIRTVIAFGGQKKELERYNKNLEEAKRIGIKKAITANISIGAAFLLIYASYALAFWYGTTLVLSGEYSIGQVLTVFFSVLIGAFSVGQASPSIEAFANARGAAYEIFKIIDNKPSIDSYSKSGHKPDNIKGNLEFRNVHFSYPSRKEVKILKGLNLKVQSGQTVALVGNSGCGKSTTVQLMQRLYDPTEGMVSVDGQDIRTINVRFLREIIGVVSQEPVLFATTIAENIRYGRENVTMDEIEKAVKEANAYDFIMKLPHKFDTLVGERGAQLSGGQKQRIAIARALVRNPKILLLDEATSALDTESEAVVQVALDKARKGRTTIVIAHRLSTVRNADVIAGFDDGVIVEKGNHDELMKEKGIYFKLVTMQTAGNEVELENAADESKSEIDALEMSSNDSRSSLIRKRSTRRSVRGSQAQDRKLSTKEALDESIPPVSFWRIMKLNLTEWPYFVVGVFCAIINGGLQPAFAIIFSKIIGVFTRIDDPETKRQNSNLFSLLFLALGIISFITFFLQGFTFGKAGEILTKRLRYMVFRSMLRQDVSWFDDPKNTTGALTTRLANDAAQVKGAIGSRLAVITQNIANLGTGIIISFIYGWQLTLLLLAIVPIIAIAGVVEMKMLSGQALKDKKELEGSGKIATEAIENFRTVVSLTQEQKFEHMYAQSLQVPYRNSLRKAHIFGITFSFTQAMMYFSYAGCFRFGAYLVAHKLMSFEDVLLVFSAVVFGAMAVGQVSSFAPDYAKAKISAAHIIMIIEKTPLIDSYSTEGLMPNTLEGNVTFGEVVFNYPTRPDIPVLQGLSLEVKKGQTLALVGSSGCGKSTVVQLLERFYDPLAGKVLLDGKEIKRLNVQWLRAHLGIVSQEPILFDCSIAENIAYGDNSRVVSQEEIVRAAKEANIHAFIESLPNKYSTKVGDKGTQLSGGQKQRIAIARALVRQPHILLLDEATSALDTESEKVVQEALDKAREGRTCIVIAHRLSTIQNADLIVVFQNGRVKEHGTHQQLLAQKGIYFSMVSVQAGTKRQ

`COc1cccc(-c2cc3nc(C)c(C(C)C)c(N4CCN(C(=O)c5ccoc5)CC4)n3n2)c1`: the EC50 is 10.2 µM.

As for `c1ccc(CN2CCN(c3cc(-c4ccco4)nc4cc(-c5ccccc5)nn34)CC2)cc1`, the EC50 was 3.84 µM.

For `Cc1c(-c2ccco2)nc2cc(-c3ccccc3)nn2c1N1CCN(C(=O)c2ccoc2)CC1`, the concentration for a half-maximal effect (EC50) is 6.48 µM.

In the case of `O=C(c1ccoc1)N1CCN(c2cc(-c3ccccc3F)nc3cc(-c4ccccc4)nn23)CC1`, the EC50 is 10.5 µM.

As to `Cc1nc2cc(-c3ccc4c(c3)OCO4)nn2c(N2CCN(C(=O)c3ccoc3)CC2)c1C`, the 50% effective concentration (EC50) is 1.93 µM.

On to `COc1cccc(-c2cc3nc(C)cc(N4CCN(C(=O)c5ccoc5)CC4)n3n2)c1`, for which the EC50 entry is “inactive”.

Take `COc1cccc(-c2cc3nc(-c4ccccc4)cc(N4CCN(C(=O)c5ccoc5)CC4)n3n2)c1`: the EC50 is 7.07 µM.

`Cc1cc(N2CCN(C(=O)C3CCCO3)CC2)n2nc(-c3cccc(F)c3)cc2n1` (stereo not given): the EC50 result is “inactive”.

`O=C(c1ccoc1)N1CCN(c2cc(-c3ccoc3)nc3cc(-c4ccccc4)nn23)CC1`: the EC50 result was “inactive”.

With `COc1cccc(-c2cc3nc(-c4ccccc4)c(C)c(N4CCN(C(=O)c5ccoc5)CC4)n3n2)c1`, the EC50 was 4.77 µM.

Take `Cc1occc1C(=O)N1CCN(c2cc(-c3ccco3)nc3cc(-c4ccccc4)nn23)CC1`: the EC50 was 11.8 µM.

Consider `O=C(c1ccco1)N1CCN(c2c3c(nc4cc(-c5ccc(F)cc5)nn24)CCC3)CC1`, for which the EC50 is 1.85 µM.

Take `O=C(c1ccsc1)N1CCN(c2cc(-c3ccco3)nc3cc(-c4ccccc4)nn23)CC1`: the EC50 was 5.69 µM.

Take `COc1ccc(-c2cc3nc(C)c(C)c(N4CCN(C(=O)c5ccco5)CC4)n3n2)cc1`: the concentration giving a half-maximal response (EC50) is 4.78 µM.

In the case of `O=C(c1ccoc1)N1CCN(c2cc(-c3ccco3)nc3cc(-c4ccc(Cl)cc4)nn23)CC1`, the EC50 result was “inactive”.

Take `O=C(c1ccoc1)N1CCN(c2cc(-c3cccs3)nc3cc(-c4ccccc4)nn23)CC1`: the 50% effective concentration (EC50) is 8.33 µM.

For `Cc1nc2cc(-c3ccc(Br)cc3)nn2c(N2CCN(C(=O)c3ccoc3)CC2)c1C`, the EC50 entry is “inactive”.

Regarding `Cc1nn2c(N3CCN(C(=O)c4ccco4)CC3)cc(C(C)(C)C)nc2c1-c1ccc(Cl)cc1`, the inhibition entry was “inactive”.

As for `CC(C)(C)OC(=O)N1CCN(c2cc(-c3ccco3)nc3cc(-c4ccccc4)nn23)CC1`, the EC50 entry is “inactive”.

Turning to `O=C(c1ccoc1)N1CCN(c2cc(-c3ccco3)nc3cc(-c4cccs4)nn23)CC1`, the concentration for a half-maximal effect (EC50) was 9.8 µM.

As to `CC(=O)N1CCN(c2cc(-c3ccco3)nc3cc(-c4ccccc4)nn23)CC1`, the concentration for a half-maximal effect (EC50) was 5.44 µM.

With `CC1CN(C(=O)OC(C)(C)C)CCN1c1cc(-c2ccco2)nc2cc(-c3ccccc3)nn12` (stereo not given), the EC50 result was “inactive”.

As to `O=C(c1ccoc1)N1CCN(c2cc(-c3cccc(F)c3)nc3cc(-c4ccccc4)nn23)CC1`, the EC50 entry is “inactive”.

As to `COc1ccc(-c2cc3nc(-c4ccco4)cc(N4CCN(C(=O)c5ccoc5)CC4)n3n2)cc1`, the EC50 was 4.86 µM.

`COc1cccc(-c2cc3nc(C)c(C)c(N4CCN(C(=O)c5ccoc5)CC4)n3n2)c1`: the concentration giving a half-maximal response (EC50) is 12.8 µM.

As for `O=C(c1ccoc1)N1CCN(c2cc(-c3ccco3)nc3cc(-c4cccc(Cl)c4)nn23)CC1`, the EC50 result was “inactive”.

For the molecule `Cc1ccc(-c2cc3nc(-c4ccco4)cc(N4CCN(C(=O)c5ccoc5)CC4)n3n2)cc1`, the EC50 entry was “inactive”.

With `Cc1cccc(-c2cc3nc(-c4ccco4)cc(N4CCN(C(=O)c5ccoc5)CC4)n3n2)c1`, the EC50 entry is “inactive”.

Consider `COc1ccc(-c2cc3nc(C)c(C)c(N4CCN(C(=O)c5ccoc5)CC4)n3n2)cc1`, for which the EC50 was 4.08 µM.

Take `O=C(c1ccoc1)N1CCCN(c2cc(-c3ccco3)nc3cc(-c4ccccc4)nn23)C1`: the EC50 entry is “inactive”.

As to `Cc1nc2cc(-c3cccc(F)c3)nn2c(N2CCN(C(=O)c3ccco3)CC2)c1C`, the inhibition entry is “inactive”.

In the case of `O=C(c1ccoc1)N1CCN(c2cc(-c3ccco3)nc3cc(-c4cccc(-c5ccco5)c4)nn23)CC1`, the EC50 is 5.15 µM.

For `Cc1nc2cc(-c3cccc(Cl)c3)nn2c(N2CCN(C(=O)c3ccoc3)CC2)c1C`, the EC50 result is “inactive”.

As for `Cc1nc2cc(-c3ccccc3)nn2c(N2CCN(C(=O)c3ccoc3)CC2)c1C`, the half-maximal effective concentration (EC50) is 2.19 µM.

For the molecule `COc1ccccc1-c1cc2nc(-c3ccco3)cc(N3CCN(C(=O)c4ccoc4)CC3)n2n1`, the 50% effective concentration (EC50) is 10.3 µM.

Turning to `O=C(c1ccoc1)N1CCN(c2cc(-c3ccco3)nc3cc(-c4ccccc4)nn23)CC1`, the EC50 was 4.6 µM.

For `Cc1nc2cc(-c3ccncc3)nn2c(N2CCN(C(=O)c3ccoc3)CC2)c1C`, the EC50 entry is “inactive”.

For `COc1cc(OC)cc(-c2cc3nc(C)c(C)c(N4CCN(C(=O)c5ccoc5)CC4)n3n2)c1`, the concentration giving a half-maximal response (EC50) was 1.84 µM.

`O=C(c1coc2ccccc12)N1CCN(c2cc(-c3ccco3)nc3cc(-c4ccccc4)nn23)CC1`: the EC50 result is “inactive”.

As for `O=C(c1ccco1)N1CCN(c2cc(-c3ccco3)nc3cc(-c4ccccc4)nn23)CC1`, the concentration giving a half-maximal response (EC50) was 8.53 µM.

On to `CN(CCCN(C)c1cc(-c2ccco2)nc2cc(-c3ccccc3)nn12)C(=O)c1ccoc1`, for which the EC50 entry is “inactive”.

Regarding `Cc1ccc(-c2cc(N3CCN(C(=O)c4ccoc4)CC3)n3nc(-c4ccccc4)cc3n2)o1`, the EC50 result is “inactive”.

Take `COc1ccccc1-c1cc(N2CCN(C(=O)c3ccoc3)CC2)n2nc(-c3ccccc3)cc2n1`: the 50% effective concentration (EC50) is 15.3 µM.

As to `O=C(C1CCCO1)N1CCN(c2c3c(nc4cc(-c5cccc(F)c5)nn24)CCCC3)CC1` (stereo not given), the EC50 result was “inactive”.

For the molecule `COc1cccc(-c2cc3nc(-c4cccc(C#N)c4)cc(N4CCN(C(=O)c5ccoc5)CC4)n3n2)c1`, the concentration for a half-maximal effect (EC50) was 2.34 µM.

In the case of `O=C(OCc1ccccc1)N1CCN(c2cc(-c3ccco3)nc3cc(-c4ccccc4)nn23)CC1`, the EC50 is 3.03 µM.

Consider `c1ccc(-c2cc3nc(-c4ccco4)cc(N4CCNCC4)n3n2)cc1`, for which the EC50 result is “inactive”.

Turning to `Cc1cc(C(=O)N2CCN(c3cc(-c4ccco4)nc4cc(-c5ccccc5)nn34)CC2)c(C)o1`, the EC50 was 8.68 µM.

For the molecule `COc1ccc(-c2cc3nc(-c4ccccc4)cc(N4CCN(C(=O)c5ccoc5)CC4)n3n2)cc1`, the EC50 is 2.05 µM.

`O=C(c1ccoc1)N1CCN(c2cc(-c3ccco3)nc3cc(-c4ccco4)nn23)CC1`: the EC50 is 2.03 µM.

As to `COc1cccc(-c2cc(N3CCN(C(=O)c4ccoc4)CC3)n3nc(-c4cccc(OC)c4)cc3n2)c1`, the EC50 is 3.54 µM.

Take `CC(C)(C)c1cc(N2CCN(C(=O)c3ccoc3)CC2)n2nc(-c3ccccc3)cc2n1`: the EC50 result is “inactive”.

For `CC(=O)N1CCN(c2c(C)c(C)nc3cc(-c4ccc(F)cc4)nn23)CC1`, the inhibition result was “inactive”.

As for `COc1ccc(-c2[nH]nc3nc(N4CCN(C(=O)c5ccoc5)CC4)cc(C(F)(F)F)c23)cc1`, the EC50 entry was “inactive”.

As for `COC(=O)c1cccc(-c2cc(N3CCN(C(=O)c4ccoc4)CC3)n3nc(-c4cccc(OC)c4)cc3n2)c1`, the concentration for a half-maximal effect (EC50) is 2.97 µM.

`COc1ccccc1-c1c(C)nn2c(N3CCN(C(=O)c4ccco4)CC3)cc(C)nc12`: the inhibition result is “inactive”.

As to `COc1cccc(-c2cc3nc(C)c(C)c(N4CCN(Cc5ccco5)CC4)n3n2)c1`, the inhibition result was “inactive”.

On to `CNCCCN(C)c1cc(-c2ccco2)nc2cc(-c3ccccc3)nn12`, for which the EC50 entry was “inactive”.

On to `COc1cccc(-c2cc3nc(C)c(C)c(N4CCN(C(=O)c5ccco5)CC4)n3n2)c1`, for which the EC50 is 11.8 µM.

On to `O=C1CN(c2cc(-c3ccco3)nc3cc(-c4ccccc4)nn23)CCN1c1ccccc1`, for which the concentration giving a half-maximal response (EC50) was 6.61 µM.

As for `O=C(c1ccco1)N1CCN(c2cc(-c3ccccc3)nc3ncnn23)CC1`, the inhibition result is “inactive”.

Take `CC(=O)N1CCN(c2cc(-c3ccco3)nc3cc(-c4cccc(Cl)c4)nn23)CC1`: the EC50 is 3.97 µM.

Turning to `O=C(c1ccoc1)N1CCN(c2cc(-c3ccccc3)nc3cc(-c4ccncc4)nn23)CC1`, the EC50 was 9.92 µM.

Take `O=C(c1ccoc1)N1CCN(c2cc(-c3cccc(F)c3)nc3cc(-c4cccc(Cl)c4)nn23)CC1`: the concentration giving a half-maximal response (EC50) was 6.45 µM.

Regarding `COc1ccc(-c2cc(N3CCN(C(=O)c4ccoc4)CC3)n3nc(-c4ccccc4)cc3n2)cc1`, the EC50 result is “inactive”.

The values above are taken from PubChem BioAssay AID489002 (NMMLSC, 2010).
